{"source": "patent US6911319B2", "about": "“Methods and kits for detecting protein kinases” (Lumitech (UK) Limited, priority 2000, dated 2005)", "format_in_all_cases": "biochemical", "key": {"raf-1": {"tested_on": "raf-1", "test": "Bioluminescent protein kinase assay, raf-1 activation of inactive MEK-1", "details": "two different concentrations of PD098059; inactive MEK-1 as substrate"}, "MAPK-1/ERK-1": {"biological_target": "T1, MAPK-1/ERK-1 (Homo sapiens, UniProt P27361)", "T1 construct": "purchased UBI (Upstate Biotechnology)", "T1 sequence (P27361 whole entry)": "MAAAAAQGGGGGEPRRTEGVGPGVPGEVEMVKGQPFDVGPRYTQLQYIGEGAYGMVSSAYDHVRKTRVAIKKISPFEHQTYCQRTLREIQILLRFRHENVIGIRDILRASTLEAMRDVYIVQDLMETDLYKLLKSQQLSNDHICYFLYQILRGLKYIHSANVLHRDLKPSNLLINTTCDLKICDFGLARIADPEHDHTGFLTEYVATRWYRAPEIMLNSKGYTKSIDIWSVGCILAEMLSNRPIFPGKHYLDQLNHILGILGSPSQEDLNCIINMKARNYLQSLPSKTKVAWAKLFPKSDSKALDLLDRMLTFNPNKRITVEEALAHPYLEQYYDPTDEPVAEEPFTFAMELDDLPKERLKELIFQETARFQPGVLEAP", "test": "Bioluminescent protein kinase assay, MAPK-1 with MBP as substrate", "details": "30° C. for 30 minutes, MBP 2.72 μM", "protocol": "We also investigated the effect of genistein (Calbiochem) on MAPK-1 activity with MBP as substrate.\nThe assay buffer used was the same as for the SAP kinases (see above). The assay was performed in 100 μl volumes in a 96 well microtitre plate at 30° C. for 30 minutes. MBP (Calbiochem) was used at the same concentration as previously described (2.72 μM), with the activated MAPK1/ERK1 (UBI) used at a final concentration of 2.5U per100 μl reaction volume. The inhibitor was added at concentrations of 0, 0.1, 0.25, 0.5 and 1.0 μM, with 10 μl being added per well in 0.1% (v/v) DMSO.\nFor completeness, control samples with and without DMSO (0+DMSO and 0−DMSO, respectively) were also analysed to confirm that there was no effect of DMSO on the performance of the assay."}, "[1]": {"biological_target": "luciferase-luciferin reaction (Photinus pyralis, UniProt P08659)", "sequence (P08659 whole entry)": "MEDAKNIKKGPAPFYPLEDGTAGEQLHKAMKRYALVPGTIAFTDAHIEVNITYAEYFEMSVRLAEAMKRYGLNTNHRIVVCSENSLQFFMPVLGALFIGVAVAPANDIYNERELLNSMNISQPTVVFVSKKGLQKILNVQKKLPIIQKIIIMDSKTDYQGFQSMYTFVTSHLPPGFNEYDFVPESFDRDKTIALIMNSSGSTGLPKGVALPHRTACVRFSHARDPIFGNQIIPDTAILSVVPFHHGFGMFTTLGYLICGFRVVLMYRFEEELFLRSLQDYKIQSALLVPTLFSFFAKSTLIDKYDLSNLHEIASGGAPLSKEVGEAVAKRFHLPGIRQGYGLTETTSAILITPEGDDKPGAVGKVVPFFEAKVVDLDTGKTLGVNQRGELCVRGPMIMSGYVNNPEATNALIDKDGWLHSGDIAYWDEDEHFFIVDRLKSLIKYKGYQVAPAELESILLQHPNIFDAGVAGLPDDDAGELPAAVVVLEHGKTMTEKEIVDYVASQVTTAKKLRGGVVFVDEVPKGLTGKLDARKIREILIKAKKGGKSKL", "test": "Effect of inhibitor on the bioluminescent ATP detection system", "details": "even at the highest concentration of the inhibitor; 10 μM ATP, 100 μl volumes, 96 well plate", "protocol": "We initially chose to look at a broad spectrum kinase inhibitor staurosporine (Calbiochem). Firstly, we tested the inhibitor (in DMSO) on the ATP detection reagent to ensure that the inhibitor would not affect the luciferase-luciferin reaction.\nThe results are presented as the means of triplicate wells±SD.\nThe experiment was performed using 10 μM ATP in 100 μl volumes in a 96 well plate with the addition of 20 μl of ATP detection reagent."}, "JNK2α2": {"biological_target": "T2, JNK2α2 (Homo sapiens, UniProt P45984)", "T2 construct": "purchased Upstate Discovery", "T2 sequence (P45984 whole entry)": "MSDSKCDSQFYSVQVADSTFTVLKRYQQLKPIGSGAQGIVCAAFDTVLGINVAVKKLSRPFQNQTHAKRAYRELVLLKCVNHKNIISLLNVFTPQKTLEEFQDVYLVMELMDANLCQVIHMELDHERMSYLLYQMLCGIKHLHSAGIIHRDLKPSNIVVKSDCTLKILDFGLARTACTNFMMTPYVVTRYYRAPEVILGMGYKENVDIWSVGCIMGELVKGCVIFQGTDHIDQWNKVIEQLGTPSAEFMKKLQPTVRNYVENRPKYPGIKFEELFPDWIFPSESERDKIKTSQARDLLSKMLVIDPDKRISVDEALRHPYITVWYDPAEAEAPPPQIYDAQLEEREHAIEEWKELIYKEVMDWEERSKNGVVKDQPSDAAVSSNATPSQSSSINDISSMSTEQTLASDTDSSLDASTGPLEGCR", "test": "Bioluminescent protein kinase assay, JNK2α2 with ATF-2 as substrate", "protocol": "The lower concentration had little effect, however 5 μM caused approximately 50% inhibition after 30 minutes at 30° C.\nThe above assay was performed in 200 μl volumes in plastic tubes in, a 30° C. waterbath. At each time point 20 μl samples were removed from the tubes and added to wells of a 96 well plate, followed by the addition of 20 μl of ATP detection reagent. The final concentration of ATP used was 12.5 μM, with JNK2α2 at 1.25 μM and ATF-2 at 2.55 μM."}}}
{"smiles": "COc1cccc(-c2cc(=O)c3ccccc3o2)c1N", "note": "[PD098059]", "values": [{"measurement": "light output in the presence of the inhibitor (indicating reduced kinase activity)", "setting": "raf-1", "result": "concentration dependent increase"}]}
{"smiles": "O=c1c(-c2ccc(O)cc2)coc2cc(O)cc(O)c12", "note": "[genistein]", "values": [{"measurement": "effect on MAPK-1 activity", "setting": "MAPK-1/ERK-1; genistein 500 nM", "result": "an effect"}, {"measurement": "effect on MAPK-1 activity", "setting": "MAPK-1/ERK-1; genistein 1 μM", "result": "increased inhibitory activity"}]}
{"smiles": "CN[C@@H]1C[C@H]2O[C@@](C)([C@@H]1OC)n1c3ccccc3c3c4c(c5c6ccccc6n2c5c31)C(=O)NC4", "note": "[staurosporine]", "values": [{"measurement": "effect upon light output", "setting": "[1]", "result": "no significant effect"}, {"measurement": "inhibition of JNK2α2 activity", "setting": "JNK2α2; 5 μM staurosporine, after 30 minutes at 30° C., ATP 12.5 μM, JNK2α2 1.25 μM, ATF-2 2.55 μM", "result": "approximately 50%"}, {"measurement": "effect on JNK2α2 activity", "setting": "JNK2α2; the lower of two staurosporine concentrations, 30° C.", "result": "little effect"}]}
